Results as given in ChEMBL document CHEMBL1201862, “PubChem BioAssay data set” (2004).
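How tested: cells in 96-well plates exposed to compound for 48 hours at five concentrations. Abbreviation: GI50, concentration required for 50% inhibition of growth.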 The source made the active and inactive calls. Cut-off read from the data, not from the text of the source: active = GI50 up to about 1.1 µM and inactive = higher.

Tests used:
Assay in all cases: NCI-60 cell line screen, 48 h
HCT-15 = tested on: HCT-15
786-0 = tested on: 786-0
OVCAR-3 = tested on: OVCAR-3
A498 = tested on: A498
NCI/ADR-RES = tested on: NCI/ADR-RES
NCI-H460 = tested on: NCI-H460
IGROV-1 = tested on: IGROV-1
SK-MEL-2 = tested on: SK-MEL-2
TK-10 = tested on: TK-10
CAKI-1 = tested on: CAKI-1
OVCAR-8 = tested on: OVCAR-8
MDA-MB-435 = tested on: MDA-MB-435
ACHN = tested on: ACHN
SR = tested on: SR
SF-295 = tested on: SF-295
UACC-257 = tested on: UACC-257
HOP-92 = tested on: HOP-92
HCT-116 = tested on: HCT-116
EKVX = tested on: EKVX
RPMI-8226 = tested on: RPMI-8226

SMILES	GI50 (HCT-15) [µM]	GI50 (786-0)	GI50 (OVCAR-3)	GI50 (A498)	GI50 (NCI/ADR-RES)	GI50 (NCI-H460)	GI50 (IGROV-1)	GI50 (SK-MEL-2)	GI50 (TK-10)	GI50 (CAKI-1)	GI50 (OVCAR-8)	GI50 (MDA-MB-435)	GI50 (ACHN)	GI50 (SR)	GI50 (SF-295)	GI50 (UACC-257)	GI50 (HOP-92)	GI50 (HCT-116)	GI50 (EKVX)	GI50 (RPMI-8226)
N#CCc1nc(C#N)c(N)o1	> 100	> 100 µM (inactive)	> 100 µM (inactive)	> 100 µM (inactive)	> 100 µM (inactive)	> 100 µM (inactive)	> 100 µM (inactive)	> 100 µM (inactive)	> 100 µM (inactive)	> 100 µM (inactive)	> 100 µM (inactive)	> 100 µM (inactive)	> 100 µM (inactive)	> 100 µM (inactive)	> 100 µM (inactive)	> 100 µM (inactive)	> 100 µM (inactive)	> 100 µM (inactive)	–	–
COc1ccccc1N1C(=O)/C(=C\c2cccc(Oc3ccccc3)c2)S(=O)(=O)C1c1ccccc1 (stereo unspecified)	32.4	49.4 µM (inactive)	38.7 µM (inactive)	49.8 µM (inactive)	2.92 µM (inactive)	53.7 µM (inactive)	–	21.4 µM (inactive)	58.7 µM (inactive)	> 100 µM (inactive)	–	30.8 µM (inactive)	> 100 µM (inactive)	16.7 µM (inactive)	81.8 µM (inactive)	21.7 µM (inactive)	14.5 µM (inactive)	23.8 µM (inactive)	10.5 µM (inactive)	–
Cc1c(O)c(OC2OC(CO)C(O)C(O)C2O)cc2c1C=C[C@@H]1[C@@]2(C)C(=O)C[C@]2(C)[C@@H]([C@@](C)(O)C(=O)CCC(C)(C)O)[C@H](O)C[C@@]12C (stereo partly specified)	25.9	25.2 µM (inactive)	22.6 µM (inactive)	19.5 µM (inactive)	25.5 µM (inactive)	20.2 µM (inactive)	19.7 µM (inactive)	26.2 µM (inactive)	18.1 µM (inactive)	20 µM (inactive)	33.3 µM (inactive)	27.1 µM (inactive)	19.6 µM (inactive)	35.9 µM (inactive)	17.1 µM (inactive)	20.9 µM (inactive)	18.4 µM (inactive)	18.9 µM (inactive)	28.6 µM (inactive)	–
COc1cc(CC2c3cc(OC)c(OC)cc3CCN2C)c(Oc2cc3c(cc2OC)-c2c(O)c(OC)cc4c2C(C3)N(C)CC4)cc1OC (stereo unspecified)	14	23.1 µM (inactive)	20.4 µM (inactive)	22 µM (inactive)	20.6 µM (inactive)	18.4 µM (inactive)	20 µM (inactive)	22.8 µM (inactive)	22 µM (inactive)	23.7 µM (inactive)	20.8 µM (inactive)	24 µM (inactive)	22.9 µM (inactive)	3.68 µM (inactive)	17.9 µM (inactive)	14.5 µM (inactive)	14.5 µM (inactive)	18.1 µM (inactive)	20.5 µM (inactive)	–
CCOC(=O)/C=C/CCC(C)(C)COC(C)=O	> 10	> 10 µM (inactive)	> 10 µM (inactive)	–	> 10 µM (inactive)	> 10 µM (inactive)	> 10 µM (inactive)	> 10 µM (inactive)	> 10 µM (inactive)	> 10 µM (inactive)	> 10 µM (inactive)	> 10 µM (inactive)	> 10 µM (inactive)	> 10 µM (inactive)	> 10 µM (inactive)	> 10 µM (inactive)	> 10 µM (inactive)	> 10 µM (inactive)	> 10 µM (inactive)	> 10 µM (inactive)
FC(F)(F)c1ccc(/N=C/C=C(/Nc2ccc(C(F)(F)F)cc2)c2ccc(Cl)cc2)cc1	4.73	15.5 µM (inactive)	6.78 µM (inactive)	–	13.7 µM (inactive)	4.38 µM (inactive)	2.62 µM (inactive)	8.34 µM (inactive)	15.8 µM (inactive)	3.49 µM (inactive)	15.6 µM (inactive)	6.82 µM (inactive)	10.1 µM (inactive)	3.47 µM (inactive)	15.8 µM (inactive)	16.4 µM (inactive)	16.5 µM (inactive)	4.79 µM (inactive)	15.9 µM (inactive)	4.72 µM (inactive)
